Test results from patent US8895474B2, “Herbicidally active cyclopentanediones and derivatives thereof, and their use in controlling weeds” (Syngenta Limited, priority 2009, dated 2014).

Legend:
Type in all cases: in vivo
Conditions in all cases: 312 h, rate 250 g/ha, evaluated after 13 days, 100=total damage to plant, 0=no damage to plant
[1] = tested on: Alopecurus myosuroides (ALOMY); assay: Pre-emergence herbicidal activity, glasshouse pot test
Protocol: (§1) Seeds of a variety of test species were sown in standard soil in pots. After cultivation for one day (pre-emergence) or after 8 days cultivation (post-emergence) under controlled conditions in a glasshouse (at 24/16° C., day/night; 14 hours light; 65% humidity), the plants were sprayed with an aqueous spray solution derived from the formulation of the technical active ingredient in acetone/water (50:50) solution containing 0.5% Tween 20 (polyoxyethelyene sorbitan monolaurate, CAS RN 9005-64-5). The test plants were then grown in a glasshouse under controlled conditions in a glasshouse (at 24/16° C., day/night; 14 hours light; 65% humidity) and watered twice daily. After 13 days for pre and post-emergence, the test was evaluated (100=total damage to plant; 0=no damage to plant). Test Plants: Lolium perenne (LOLPE), Alopecurus myosuroides (ALOMY), Echinochloa crus-galli (ECHCG), and Avena fatua (AVEFA). Pre-Emergence Activity

Avena fatua (AVEFA) [2] = assay: as above
Protocol: as §1

[3] = tested on: Echinochloa crus-galli (ECHCG); assay: as above
Protocol: as §1

Lolium perenne (LOLPE) [4] = assay: as above
Protocol: as §1

[5] = tested on: Alopecurus myosuroides (ALOMY); assay: Post-emergence herbicidal activity, glasshouse pot test
Protocol: as §1, with “Post-Emergence” for “Pre-Emergence”

Avena fatua (AVEFA) [6] = assay: as above
Protocol: as §1, with “Post-Emergence” for “Pre-Emergence”

[7] = tested on: Echinochloa crus-galli (ECHCG); assay: as above
Protocol: as §1, with “Post-Emergence” for “Pre-Emergence”

Lolium perenne (LOLPE) [8] = assay: as above
Protocol: as §1, with “Post-Emergence” for “Pre-Emergence”

SMILES | pest or weed control at 250 g/ha [1] [%] | pest or weed control at 250 g/ha (Avena fatua (AVEFA) [2]) [%] | pest or weed control at 250 g/ha [3] [%] | pest or weed control at 250 g/ha (Lolium perenne (LOLPE) [4]) [%] | pest or weed control at 250 g/ha [5] [%] | pest or weed control at 250 g/ha (Avena fatua (AVEFA) [6]) [%] | pest or weed control at 250 g/ha [7] [%] | pest or weed control at 250 g/ha (Lolium perenne (LOLPE) [8]) [%]
CCc1ccc(Oc2ccc(C#N)c(Cl)c2)cc1C1=C(O)CCC1=O [Compound A-56] | 30 | 20 | 60 | 50 | 20 | 0 | 70 | 20
CCc1ccc(Oc2nc3ccc(C(F)(F)F)cc3s2)cc1C1=C(O)C2C(C1=O)[C@H]1CC[C@@H]2CC1 (stereo partly shown) [Compound A-108] | 30 | 10 | 80 | 50 | 90 | 90 | 100 | 70
CCc1ccc(Oc2ccc(Cl)c(F)c2)cc1C1=C(O)C2C(C1=O)[C@H]1CC[C@@H]2CC1 (stereo partly shown) [Compound A-33] | 20 | 0 | 50 | 50 | 90 | 90 | 100 | 0
CCc1ccc(Oc2ccc(C(F)(F)F)cc2[N+](=O)[O-])cc1C1=C(O)CCC1=O [Compound A-76] | 20 | 0 | 100 | 50 | 50 | 80 | 80 | 30
CCc1ccc(Oc2ccc([N+](=O)[O-])c(Cl)c2)cc1C1=C(O)C2C(C1=O)[C@H]1CC[C@@H]2CC1 (stereo partly shown) [Compound A-86] | 0 | 0 | 20 | 20 | 10 | 10 | 100 | 10
CCc1ccc(Oc2ccc(Br)cc2Cl)cc1C1=C(O)[C@H]2[C@@H](C1=O)[C@@H]1CC[C@H]2O1 [Compound A-9] | 80 | 90 | 70 | 100 | 90 | 100 | 90 | 70
CCc1ccc(Oc2ccc(F)cc2)cc1C1=C(O)[C@H]2[C@@H](C1=O)[C@@H]1CC[C@H]2O1 [Compound A-46] | 80 | 60 | 100 | 80 | 80 | 60 | 100 | 80
CCc1ccc(Oc2ccc(F)c(Cl)c2)cc1C1=C(O)[C@H]2[C@@H](C1=O)[C@@H]1CC[C@H]2O1 [Compound A-49] | 90 | 90 | 100 | 100 | 90 | 90 | 100 | 100
CCc1ccc(Oc2ncc(Cl)cc2F)cc1C1=C(O)C2C(C1=O)[C@H]1CC[C@@H]2CC1 (stereo partly shown) [Compound A-14] | 60 | 60 | 100 | 90 | 100 | 100 | 100 | 90
CCc1ccc(Oc2ccc(Cl)cc2)cc1C1=C(O)[C@H]2[C@@H](C1=O)[C@@H]1CC[C@H]2O1 [Compound A-1, meso-(1R,2S,6R,7S)-4-[5-(4-chlorophenoxy)-2-ethylphenyl]-10-oxatricyclo[5.2.1.0^2,6]decane-3,5-dione] | 70 | 70 | 70 | 70 | 100 | 80 | 100 | 80
CCc1ccc(Oc2ncc(Br)cn2)cc1C1=C(O)CCC1=O [Compound A-72] | 40 | 30 | 100 | 70 | 50 | 30 | 100 | 30
CCc1ccc(Oc2ccc(Br)cc2C)cc1C1=C(O)[C@H]2[C@@H](C1=O)[C@@H]1CC[C@H]2O1 [Compound A-3] | 60 | 30 | 90 | 70 | 90 | 90 | 100 | 70
CCc1ccc(Oc2ccccc2F)cc1C1=C(O)[C@H]2[C@@H](C1=O)[C@@H]1CC[C@H]2O1 [Compound A-5] | 30 | 0 | 80 | 40 | 30 | 10 | 80 | 30
CCc1ccc(Oc2nc3ccccc3s2)cc1C1=C(O)C2C(C1=O)[C@H]1CC[C@@H]2CC1 (stereo partly shown) [Compound A-16] | 40 | 30 | 90 | 70 | 70 | 90 | 100 | 70
CCc1ccc(Oc2ccc(Cl)c(F)c2)cc1C1=C(O)[C@H]2[C@@H](C1=O)[C@@H]1CC[C@H]2O1 [Compound A-45] | 90 | 90 | 100 | 90 | 90 | 90 | 100 | 90
CCc1ccc(Oc2ccc(Br)c(Cl)c2)cc1C1=C(O)[C@H]2[C@@H](C1=O)[C@@H]1CC[C@H]2O1 [Compound A-48] | 80 | 80 | 90 | 80 | 80 | 80 | 90 | 80
CCc1ccc(Oc2ccc(Br)cc2Cl)cc1C1=C(O)CCC1=O [Compound A-35] | 30 | 10 | 20 | 60 | 10 | 20 | 30 | 20
